Reference: US20240082203A1, “PHARMACEUTICAL COMPOSITION FOR INHALATION” (SHANGHAI HUILUN BIOLOGICAL TECHNOLOGY CO., LTD., priority 2020, published 2024)

Key:
[1] = physchem; type: physicochemical; conditions: water
Protocol: The solubility of sivelestat sodium in water is less than 0.4 mg/mL, which cannot meet the administration requirements as an injection or inhalation preparation. Besides, sivelestat sodium is prone to hydrolysis in aqueous solution, generating the impurity with the following structure (hereinafter referred to as “impurity A”).

[2] = lyophilized preparation of Document 5 (anhydrous sodium carbonate, sodium chloride) kept at 60° C. for two weeks, per Document 4; cited from earlier work

- solubility [1]: < 400 µg/mL
SMILES: CC(C)(C)C(=O)Oc1ccc(S(=O)(=O)Nc2ccccc2C(=O)NCC(=O)O)cc1 [sivelestat sodium, N-[2-[[[4-(2,2-dimethyl-1-oxopropoxy)phenyl]sulfonyl]amino]benzoyl]-(S)-glycine]
- residual rate of sivelestat sodium [2]: 91.4%
